Measurements as given in publication PMC9783868, “Indoline-5-Sulfonamides: A Role of the Core in Inhibition of Cancer-Related Carbonic Anhydrases, Antiproliferative Activity and Circumventing of Multidrug Resistance” (Pharmaceuticals, 2022).
Where two headings read alike, the source gives them in different places.

Tests used:
hCA IX = target: T1, hCA IX (Homo sapiens, UniProt Q16790); test: CA inhibition, stopped-flow CO2 hydration assay; assay type: biochemical; settings: stopped-flow technique; mean from three assays
T1 construct: made in house
Description: (§1) The CO2 hydration activity of the four hCA isoforms was monitored using an Applied Photophysics stopped-flow instrument. Phenol red (at a concentration of 0.2 mM) was used as an indicator, working at the absorbance maximum of 557 nm, with 10 mM HEPES (pH 7.4) as a buffer, and 20 mM NaClO4 (for maintaining constant the ionic strength), following the initial rates of the CA-catalyzed CO2 hydration reaction for a period of 10–100 s. To determine the kinetic parameters by Lineweaver-Burk plots and the inhibition constants, a concentration of CO2 between 1.7 to 17 mM was used. At least six measurements of the original 5–10% reaction were used to assess the initial velocity for each inhibitor. The uncatalyzed rates were determined and detracted from the total observed rates. Stock inhibitor solutions (10–100 mM) were prepared in distilled-deionized water, and dilutions up to 0.1 nM were done with the buffer test. […] The inhibition constants were obtained by non-linear least-squares methods using PRISM 6 and the Cheng-Prusoff equation, as reported earlier, and represent the mean from at least three different determinations.

hCA I = target: T2, hCA I (Homo sapiens, UniProt P00915); test: CA inhibition, stopped-flow CO2 hydration assay; assay type: biochemical; settings: stopped-flow technique; mean from three assays
T2 construct: made in house
T2 sequence (P00915 whole entry): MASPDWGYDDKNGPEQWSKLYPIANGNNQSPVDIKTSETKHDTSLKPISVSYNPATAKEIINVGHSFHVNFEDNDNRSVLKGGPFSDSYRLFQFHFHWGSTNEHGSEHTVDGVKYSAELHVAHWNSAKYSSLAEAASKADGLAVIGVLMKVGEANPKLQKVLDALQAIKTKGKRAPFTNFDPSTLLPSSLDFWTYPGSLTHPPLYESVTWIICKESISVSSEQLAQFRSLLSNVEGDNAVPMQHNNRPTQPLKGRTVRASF
Description: as §1

hCA II = target: T3, hCA II (Homo sapiens, UniProt P00918); test: CA inhibition, stopped-flow CO2 hydration assay; assay type: biochemical; settings: stopped-flow technique; mean from three assays
T3 construct: made in house
Description: as §1

hCA XII = target: T4, hCA XII (Homo sapiens, UniProt O43570); test: CA inhibition, stopped-flow CO2 hydration assay; assay type: biochemical; settings: stopped-flow technique; mean from three assays
T4 construct: made in house
T4 sequence (O43570 25-354): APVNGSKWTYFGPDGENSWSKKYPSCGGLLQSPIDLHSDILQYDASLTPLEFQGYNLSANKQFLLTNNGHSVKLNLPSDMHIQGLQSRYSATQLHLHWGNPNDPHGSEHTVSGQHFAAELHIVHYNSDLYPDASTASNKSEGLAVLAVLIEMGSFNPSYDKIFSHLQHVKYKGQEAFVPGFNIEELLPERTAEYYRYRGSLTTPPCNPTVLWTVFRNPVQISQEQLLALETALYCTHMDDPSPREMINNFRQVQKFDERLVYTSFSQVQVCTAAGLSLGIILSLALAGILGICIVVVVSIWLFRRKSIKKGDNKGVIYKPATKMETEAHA
Description: as §1

MCF7 cells = test: Antiproliferative activity, MTT test; assay type: cell-based; settings: Homo sapiens, MTT assay after 72 h exposure
Description: A series of synthesized indoline-5-sulfonamides was tested on the MCF7 cancer cell line under normoxia and hypoxia using the MTT test.
The MDR subline K562/4 [77] (kind gift of Dr. Alexander Shtil, Blokhin N.N. National Medical Research Center of Oncology) was obtained by stepwise selection of K562 cells for survival under continuous exposure to Dox. This subline expresses the MDR1 gene and functional P-gp and is characterized by a high resistance index for Dox. […] Cells in the logarithmic phase of growth were used in the experiments. The growth inhibitory activity of compounds was assessed by the MTT test based on the metabolism of the MTT reagent (3-[4,5-dimethylthiazol-2-yl]-2,5-diphenyltetrazolium bromide) (Applichem) in living cells, with modifications as described previously in [49]. Compounds at different concentrations in 100 μL of the appropriate medium were added, and the cells were grown for 72 h. The hypoxia (1% O2) conditions were simulated in Binder multigas incubator, as described in [49]. After incubation with compounds, the medium was removed, the MTT reagent that was dissolved in the medium was added to the final concentration of 0.2 mg/mL to each well, and the incubation was performed for 2 h. Then the cell supernatants were removed, and purple formazan crystals were dissolved in 100% DMSO (350 μL per well). Culture plates were gently shaken, and the absorbance was measured at 571 nm with a reference wavelength of 630 nm on a MultiScan reader (ThermoFisher, Waltham, MA, USA). The viability of the cells was expressed as a percentage of the control. Dose-response curves were analyzed by regression analysis using sigmoid curves (Log(concentration) vs. normalized absorbance).
All results were reported as means ± SD. One-way analysis of variance was used for the analysis of data. Differences were defined as significant at p < 0.05. GraphPad Prism7 (GraphPad Software, San Diego, CA, USA) was used for the determination of the half-maximal inhibitory concentration (IC50) values.

A431 skin cancer cells = test: Antiproliferative activity, MTT test; assay type: cell-based, human; settings: 72 h, normoxia
Description: To evaluate the influence of CA inhibition on the antiproliferative activity, we selected five compounds 4b, f, m, n and 10 with different inhibition profiles against CA IX for in-depth testing on cancer cells with increased CA IX expression. The database www.proteinatlas.org (accessed on 13 October 2022) contains data on gene expression in various cell lines. According to the data obtained from this database, A431 cells express CA IX at a very high level, which distinguishes them from human cell lines belonging to other tissues [https://www.proteinatlas.org/ENSG00000107159-CA9/cell+line (accessed on 13 October 2022)]. A431 cells are skin cancer cells, and their growth has already been intensely analyzed in hypoxia. […] Moreover, Ren and colleagues described that hypoxia modulates cellular pathways in A431 cells, which are associated with radioresistance and enhanced migration. Given the observations described above, we were expecting to reveal the high antiproliferative activity of the selected compounds against skin cancer cells. […] In hypoxia, the activity of tested compounds was increased, but the 50% inhibition of growth was never achieved.
(§2) The MCF7 human breast, A431 human skin cancer cells and K562 (ATCC CCL-243) chronic myelogenous leukemia cells were obtained from the ATCC collection. The MDR subline K562/4 [77] […] The growth inhibitory activity of compounds was assessed by the MTT test based on the metabolism of the MTT reagent (3-[4,5-dimethylthiazol-2-yl]-2,5-diphenyltetrazolium bromide) (Applichem) in living cells, with modifications as described previously in [49]. […] Culture plates were gently shaken, and the absorbance was measured at 571 nm with a reference wavelength of 630 nm on a MultiScan reader (ThermoFisher, Waltham, MA, USA). The viability of the cells was expressed as a percentage of the control. Dose-response curves were analyzed by regression analysis using sigmoid curves (Log(concentration) vs. normalized absorbance).

K562 cells = test: Antiproliferative activity, MTT test; assay type: cell-based, human
Description: Next, we examined the activity of the whole series of indoline-5-sulfonamides against leukemia cell line K562.
as §2, with “[77] (kind gift of Dr. Alexander Shtil, Blokhin N.N. National Medical Research Center of Oncology) was obtained by stepwise selection of K562 cells for survival under continuous exposure to Dox. This subline expresses the MDR1 gene and functional P-gp and is characterized by a high resistance index for Dox.” for “[77]”

K562/4 cells = test: Reversal of chemoresistance to Dox, MTT test; assay type: cell-based, human
Description: Earlier, Kopecka and colleagues have shown that CA XII can interact with P-gp and influence its activity. Subsequently, silencing or inhibition of CA XII by chemical agents may restore the sensitivity to Dox of resistant K562 and other tumor cells. Given the potent inhibition of 4f against CA XII and the activity of 4e against K562, we examined their ability to reverse the chemoresistance of K562/4 with P-gp to Dox.
The MCF7 human breast, A431 human skin cancer cells and K562 (ATCC CCL-243) chronic myelogenous leukemia cells were obtained from the ATCC collection. The MDR subline K562/4 [77] (kind gift of Dr. Alexander Shtil, Blokhin N.N. National Medical Research Center of Oncology) was obtained by stepwise selection of K562 cells for survival under continuous exposure to Dox. This subline expresses the MDR1 gene and functional P-gp and is characterized by a high resistance index for Dox. The MCF7 and A431 cells were cultured in standard 4.5 g/L glucose DMEM medium (Gibco) supplemented with 10% FCS (HyClone), 2 mM L-glutamine, 50 U/mL penicillin, 50 µg/mL streptomycin (PanEco), 100 µg/mL sodium pyruvate (Santa Cruz) at 37 °C, 5% CO2 and 80–85% humidity in NuAire incubator. Suspension myelogenous leukemia cells (K562, K562/4) were propagated in RPMI-1640 (PanEco) with 5% FCS (HyClone), 2 mM L-glutamine, 100 U/mL penicillin, and 100 µg/mL streptomycin at 37 °C, 5% CO2, and 80–85% humidity in Binder incubator. Cells in the logarithmic phase of growth were used in the experiments. The growth inhibitory activity of compounds was assessed by the MTT test based on the metabolism of the MTT reagent (3-[4,5-dimethylthiazol-2-yl]-2,5-diphenyltetrazolium bromide) (Applichem) in living cells, with modifications as described previously in [49]. Compounds at different concentrations in 100 μL of the appropriate medium were added, and the cells were grown for 72 h. The hypoxia (1% O2) conditions were simulated in Binder multigas incubator, as described in [49]. After incubation with compounds, the medium was removed, the MTT reagent that was dissolved in the medium was added to the final concentration of 0.2 mg/mL to each well, and the incubation was performed for 2 h. Then the cell supernatants were removed, and purple formazan crystals were dissolved in 100% DMSO (350 μL per well). Culture plates were gently shaken, and the absorbance was measured at 571 nm with a reference wavelength of 630 nm on a MultiScan reader (ThermoFisher, Waltham, MA, USA). The viability of the cells was expressed as a percentage of the control. Dose-response curves were analyzed by regression analysis using sigmoid curves (Log(concentration) vs. normalized absorbance).
Figure 6 Susceptibility of resistant K562/4 line to combinations of Dox (25 µM) with indoline-5-sulfonamides 4e and 4f. […]

[1] = hypoxia (1% O2), read-out: IC50 against MCF7 Cells, Hypoxia
[2] = normoxia, read-out: IC50 against MCF7 Cells, Normoxia

Ki (hCA IX) [µM] | Ki (hCA I) [µM] | Ki (hCA II) [µM] | Ki (hCA XII) [µM] | IC50 (MCF7 cells; [1]) [µM] | IC50 (MCF7 cells; [2]) [µM] | melting point [°C] | Compound | inhibition of growth of A431 cells, normoxia (A431 skin cancer cells) | concentration inhibiting growth of K562 cells (K562 cells) [µM] | effect of combination with Dox on viable K562/4 cells (K562/4 cells; combination with Dox (25 µM)) | cytotoxic activity against MDR subline K562/4 as monoagent (K562/4 cells; monoagent)
> 10 | 0.0659 | 0.0056 | > 10 | > 50 | > 50 | > 250 | NS(=O)(=O)c1ccc2c(c1)CCN2C(=O)c1cccc(F)c1 [Compound 4b, 1-(3-Fluorobenzoyl)indoline-5-sulfonamide] | least active | – | – | –
1.3 | 0.0522 | 0.0034 | 0.127 | 20.2 ± 2 | 29.9 ± 2.7 | 187 to 189 | NS(=O)(=O)c1ccc2c(c1)CCN2C(=O)c1c(F)c(F)c(F)c(F)c1F [Compound 4e, 1-(Perfluorobenzoyl)indoline-5-sulfonamide] | – | 10 | decline of viable K562/4 cells | low cytotoxic activity
> 10 | 0.049 | 0.003 | 0.103 | 36.7 ± 3.2 | 29.6 ± 2.2 | 248 to 250 | COc1cc(C(=O)N2CCc3cc(S(N)(=O)=O)ccc32)cc(OC)c1OC [Compound 4m, 1-(3,4,5-Trimethoxybenzoyl)indoline-5-sulfonamide] | least active | – | – | –
